The source of these data is PMC7211882, “Controlled release of basic fibroblast growth factor from a peptide biomaterial for bone regeneration” (Royal Society Open Science, 2020).

This data set deals with T1, Proteinase K (Parengyodontium album, UniProt P06873).
T1 construct: purchased RayBiotech, Norcross, GA, USA
The data set can be described thus: Peptide degradation by proteinase K. The conditions noted are these: proteinase K 0.05 mg ml^-1, 37°C, 4 h, D-RADA16 0.2 mg ml^-1, intact peptide by HPLC (C18), three replicates. Type of data set: in vitro ADME. As to the method: Proteinase K solution (RayBiotech, Norcross, GA, USA) (0.05 mg ml^−1) was added in D-RADA16 and nHA/PA66/D-RADA16 groups, respectively. All samples were incubated at 37°C, and 400 µl aliquots were removed at various time points (1, 2, 4, 6, 8, 12, 24 and 48 h). The enzymatic reaction was terminated by the addition of phenylmethanesulfonyl fluoride (working concentration: 0.1 to 1 mM) and the concentration of the intact peptide were analysed by HPLC (LCMS-2020; Shimadzu, Kyoto, Japan) under the following conditions: Venusil XBP C18, 5 µm, 4.6 × 50 mm (Agela, Tianjin, China); sample injection volume: 100 µl; gradient elution: A, 0.035% trifluoroacetic acid (TFA) in water; and B, 0.035% TFA in acetonitrile/water (80 : 20, vol/vol). A gradient of 10–100% B in 10 min was conducted. The experiment was conducted in three replicates.
Proteinase K, a highly non-specific proteolytic enzyme, was used to examine the stability of D-RADA16 in the various composites. The concentration of each D-RADA16 was set to 0.2 mg ml^−1. And after 4 h, only 30–40% of the peptide remained in the control samples, whereas over 50% of the peptide still remained in the experimental samples. Similar results were observed after 24 and 48 h (figure 1d).

T1 sequence (P06873 106-384): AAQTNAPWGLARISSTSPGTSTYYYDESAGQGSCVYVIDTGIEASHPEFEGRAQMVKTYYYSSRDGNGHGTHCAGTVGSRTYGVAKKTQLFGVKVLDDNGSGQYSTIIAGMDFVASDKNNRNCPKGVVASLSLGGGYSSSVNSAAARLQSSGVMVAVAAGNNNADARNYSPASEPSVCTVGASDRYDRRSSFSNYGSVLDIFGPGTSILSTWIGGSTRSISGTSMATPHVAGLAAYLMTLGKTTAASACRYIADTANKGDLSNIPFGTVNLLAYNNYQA

Regarding `CC(=O)N[C@H](CCCNC(=N)N)C(=O)N[C@H](C)C(=O)N[C@H](CC(=O)O)C(=O)N[C@H](C)C(=O)N[C@H](CCCNC(=N)N)C(=O)N[C@H](C)C(=O)N[C@H](CC(=O)O)C(=O)N[C@H](C)C(=O)N[C@H](CCCNC(=N)N)C(=O)N[C@H](C)C(=O)N[C@H](CC(=O)O)C(=O)N[C@H](C)C(=O)N[C@H](CCCNC(=N)N)C(=O)N[C@H](C)C(=O)N[C@H](CC(=O)O)C(=O)N[C@H](C)C(N)=O` [D-RADA16, Ac-RADARADARADARADA-CONH2], the intact peptide remaining was 30–40%.
